Earlier results as cited in patent publication US6447754B1, “Oral rinse methods and compositions” (AkPharma Inc., priority 2000, dated 2002).

Settings: in animals; ingestion

1,2,3-propanetriol, mono(dihydrogen phosphate) calcium salt (1:1) [CGP]
upper limit of CGP which can safely be ingested: greater than 5 grams of CGP per kilogram of body weight
